Results published in patent US20220040158A1, “AZD0328 DOSAGE REGIME FOR TREATING COGNITIVE IMPAIRMENT” (ASTRAZENECA AB, priority 2018, published 2022).
Read-outs that look alike come from different tables or passages of the source.

How the values were obtained:
[1] = geometric mean, cited from earlier work
[2] = AQW051 single-dose cohort pharmacokinetics (Feuerbach et al, phase I); assay type: in vivo, human
Source text: (§1) We thus set out to use summary cohort-level pharmacokinetic (PK) statistics for AQW051 (Feuerbach et al, ibid) and our own unpublished results for AZD0328 (A Phase I, Single-Centre, Randomized, Double-Blind, Placebo-Controlled, Parallel Group Study to Assess the Safety, Tolerability and Pharmacokinetics of AZD0328 in Healthy Volunteers after Oral Single Ascending Doses, Study Code D0190C00005, Ed. 1, 8 Apr. 2008) to establish a safe an efficacious dose range and regime for AZD0328 in Parkinson's disease patients.
(§2) From the clinical study documentation, for each dose cohort t1/2, tmax, and Cmax could be established. For example, assuming dose-proportionality, half-life t1/2 was estimated for both drugs as the mean over of t1/2 over the different single-dose cohorts, as described in the study publications. We could then determine a working value for the elimination time constant ke in equation (2): […]
(§3) Dose and dosing regime selection for AZD0328 is targeted to achieve similar levels of α7 nAChR agonism to those reported to deliver clinical improvement in MCI with AQW051 (Trenkwalder et al., ibid).

[3] = single compartment oral dosing PK model for AQW051; set-up: species or system human; settings: model parameter estimate
Source text: (§4) In more detail, a single compartment oral dosing model with first order absorption as shown in equation (1) for a single dose at time t=0. This population-level model describes the concentration time dynamics of the study cohort given dose D of the drug. Here t is time, C(t) is drug concentration over time, Cmax is maximum achieved concentration at a particular dose, F is bioavailability, D is dose, Vd is volume of distribution, kα is the absorption time constant, and ke is the elimination time constant.
as §2
(§5) From equation (1), the time of maximum concentration tmax is then available from (3):
(§6) With dose-proportionality, tmax is independent of dose and is again obtained from the mean over the different single-dose cohorts. The absorption time constant kα is established by identifying the kα which results in a zero error e=0:
(§7) This is accomplished by graphing e(kα) over a dense grid in kα, identifying a region around the zero-crossing in which e(.) is monotonic in k0, and then using the interpolation function to estimate the kα with e(kα)=0. With the assumption of dose proportionality, we estimated the mean of Cmax/D over the single-dose cohorts and defined the constant K
(§8) Then from equation (1) and the definition of Cmax,
(§9) For multiple doses at times τi, we then assume linearity and hav
(§10) All equations were implemented directly in R version 3.2.1 (2015 Jun. 18, see https://cran.r-project.org/).
as §3

[4] = molecular target: T1, α7 nAChR (Homo sapiens, UniProt P36544); settings: from the literature (Feuerbach et al.); read-out: EC50 as α7 nAChR agonist; cited from earlier work
T1 sequence (P36544 23-502): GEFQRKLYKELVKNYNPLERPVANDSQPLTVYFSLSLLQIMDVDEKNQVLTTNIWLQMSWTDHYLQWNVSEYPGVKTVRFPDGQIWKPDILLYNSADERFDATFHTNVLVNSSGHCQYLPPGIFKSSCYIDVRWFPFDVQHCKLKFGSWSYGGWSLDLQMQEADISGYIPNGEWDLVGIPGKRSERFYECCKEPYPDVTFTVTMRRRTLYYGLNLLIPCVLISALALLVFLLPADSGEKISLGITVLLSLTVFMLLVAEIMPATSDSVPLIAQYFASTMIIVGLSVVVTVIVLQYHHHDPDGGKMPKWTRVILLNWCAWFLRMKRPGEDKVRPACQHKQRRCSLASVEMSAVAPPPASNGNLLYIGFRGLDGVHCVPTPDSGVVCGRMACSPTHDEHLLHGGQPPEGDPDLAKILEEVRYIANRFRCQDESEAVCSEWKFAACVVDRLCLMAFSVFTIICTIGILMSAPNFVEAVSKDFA

[5] = system: Parkinson's disease patients; settings: cited from earlier work
[6] = molecular target: T1, α7 nAChR; test: activation of whole cell current at α7 nAChR; assay type: cell-based
[7] = single compartment oral dosing PK model for AZD0328; set-up: species or system human; settings: model parameter estimate
Source text: as §4, §2, §5, §6, §7, §8, §9, §10

[8] = molecular target: α1β1γδ nAChR (Homo sapiens, UniProt P02708+P07510+Q07001); test: selectivity by inhibition of radioligand binding, α1β1γδ nAChR; settings: relative to α7 nAChR
Chain of α1β1γδ nAChR (P02708 21-457): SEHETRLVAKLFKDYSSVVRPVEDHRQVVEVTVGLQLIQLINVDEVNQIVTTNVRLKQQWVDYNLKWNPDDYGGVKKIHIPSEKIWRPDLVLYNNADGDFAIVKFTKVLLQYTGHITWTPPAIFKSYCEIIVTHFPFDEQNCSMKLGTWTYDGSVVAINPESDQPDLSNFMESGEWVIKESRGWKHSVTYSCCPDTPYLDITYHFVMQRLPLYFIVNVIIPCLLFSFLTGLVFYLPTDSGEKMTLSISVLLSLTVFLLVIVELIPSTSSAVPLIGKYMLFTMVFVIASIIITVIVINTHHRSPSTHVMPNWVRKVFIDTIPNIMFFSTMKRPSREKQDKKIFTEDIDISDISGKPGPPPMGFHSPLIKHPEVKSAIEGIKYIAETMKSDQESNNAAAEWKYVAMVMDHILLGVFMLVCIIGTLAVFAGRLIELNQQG
Chain of α1β1γδ nAChR (P11230 24-501 partner): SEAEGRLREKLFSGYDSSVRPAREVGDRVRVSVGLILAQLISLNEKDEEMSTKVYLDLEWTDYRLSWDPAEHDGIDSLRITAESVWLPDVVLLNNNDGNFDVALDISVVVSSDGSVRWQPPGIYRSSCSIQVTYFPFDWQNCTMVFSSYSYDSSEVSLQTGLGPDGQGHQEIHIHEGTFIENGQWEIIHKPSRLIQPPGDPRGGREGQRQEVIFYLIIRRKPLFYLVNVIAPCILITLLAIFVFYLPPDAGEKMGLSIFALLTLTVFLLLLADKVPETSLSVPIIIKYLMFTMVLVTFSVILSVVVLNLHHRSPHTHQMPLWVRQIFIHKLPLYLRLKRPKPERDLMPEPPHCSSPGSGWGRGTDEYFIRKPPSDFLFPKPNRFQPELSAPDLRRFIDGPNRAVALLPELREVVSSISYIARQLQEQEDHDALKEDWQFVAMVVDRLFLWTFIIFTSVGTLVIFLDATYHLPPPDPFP
Chain of α1β1γδ nAChR (P07510 23-517): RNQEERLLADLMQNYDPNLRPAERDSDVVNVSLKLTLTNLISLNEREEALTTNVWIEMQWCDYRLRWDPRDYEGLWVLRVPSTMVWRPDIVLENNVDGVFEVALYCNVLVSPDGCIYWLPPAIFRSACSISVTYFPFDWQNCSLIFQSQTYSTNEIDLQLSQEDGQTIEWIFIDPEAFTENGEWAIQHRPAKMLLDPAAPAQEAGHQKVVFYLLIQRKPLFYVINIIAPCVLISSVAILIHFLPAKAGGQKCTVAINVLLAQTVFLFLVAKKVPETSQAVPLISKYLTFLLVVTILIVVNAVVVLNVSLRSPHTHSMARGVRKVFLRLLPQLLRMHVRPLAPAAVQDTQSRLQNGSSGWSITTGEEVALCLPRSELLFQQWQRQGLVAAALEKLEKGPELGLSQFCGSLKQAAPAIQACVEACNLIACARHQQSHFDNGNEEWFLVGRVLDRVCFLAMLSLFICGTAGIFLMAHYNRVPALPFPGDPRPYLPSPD
Chain of α1β1γδ nAChR (Q07001 22-517): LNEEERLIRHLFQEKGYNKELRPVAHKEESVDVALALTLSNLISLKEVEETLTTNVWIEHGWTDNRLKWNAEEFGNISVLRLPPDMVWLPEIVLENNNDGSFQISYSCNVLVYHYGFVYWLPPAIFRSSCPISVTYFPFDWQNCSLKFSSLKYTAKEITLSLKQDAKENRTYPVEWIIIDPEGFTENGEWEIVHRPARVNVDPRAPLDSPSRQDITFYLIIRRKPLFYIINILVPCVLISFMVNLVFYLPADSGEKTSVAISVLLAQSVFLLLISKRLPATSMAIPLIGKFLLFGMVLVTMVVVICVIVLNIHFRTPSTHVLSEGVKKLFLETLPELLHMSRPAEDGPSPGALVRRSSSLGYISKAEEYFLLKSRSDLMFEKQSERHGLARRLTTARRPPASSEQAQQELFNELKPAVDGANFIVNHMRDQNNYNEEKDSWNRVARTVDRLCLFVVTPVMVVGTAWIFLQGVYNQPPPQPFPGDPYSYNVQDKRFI
Source text: (§11) AZD0328 is ca 20-fold selective to the α1β1γδ nAChR, and 1000-fold selective to other nicotinic receptors and a panel of other targets (as determined by inhibition of radioligand binding).

[9] = system: rats; settings: oral administration (WO2008/115139); cited from earlier work
[10] = molecular target: T1, α7 nAChR; test: α7 nAChR binding (inhibition of radioligand binding)
Source text: as §11

[11] = system: Rhesus monkeys; test: spatial working memory in Rhesus monkeys; assay type: in vivo, Rhesus monkey
Description: (§12) In Rhesus monkeys, spatial working memory was enhanced by doses of AZD0328 above 0.001 mg/kg (plasma compound levels of ca 0.2 times the whole cell current IC50).

[12] = system: schizophrenia patients; test: clinical evaluation of cognition in schizophrenia patients; assay type: in vivo, human; settings: doses up to 0.675 mg
Source text: In the case of schizophrenia, it has been widely postulated that direct-acting agonists of various cholinergic receptors including α7 nAChRs, could normalize GABAergic, glutamergic, or dopaminergic function in the dorsolateral prefrontal cortex (dIPFC), dysfunction of which has been consistently associated with cognitive deficits in this condition. […] To date, despite numerous trials, no α7 nAChR agonist has been approved for use in the treatment of schizophrenia.
as §12

[13] = Phase I oral single ascending dose study of AZD0328 in healthy volunteers (safety, tolerability, pharmacokinetics); assay type: in vivo, human
Source text: as §1, §2
Capsules used in the study on which the modelling described above was performed were made by blending AZD0328 tartrate (monotartrate/monohydrate form) with mannitol, povidone and sodium starch glycolate (see Table 5). The blend was the subjected to wet granulation with water as the granulation fluid, then dried before blending with sodium stearyl fumarate. The resultant composition was filled into size 4 hard gelatin capsules (containing gelatin (Ph Eur), titanium dioxide (Ph Eur), and iron oxide black, red and yellow (E172). In embodiments, the compositions for use are capsules according to Table 5.

[14] = molecular target: T1, α7 nAChR; test: Ki for efficacy used as threshold in PK figures; settings: threshold indicated in FIGS. 3-5
[15] = system: other nicotinic receptors and a panel of other targets; test: selectivity by inhibition of radioligand binding, other nicotinic receptors and panel; settings: relative to α7 nAChR
Source text: as §11

[16] = healthy volunteers, oral single dose 0.025 mg, cohort geometric mean
[17] = healthy volunteers, oral single dose 0.075 mg, cohort geometric mean
[18] = healthy volunteers, oral single dose 0.23 mg, cohort geometric mean
[19] = healthy volunteers, oral single dose 0.68 mg, cohort geometric mean
[20] = healthy volunteers, oral single dose 1.35 mg, cohort geometric mean
[21] = healthy volunteers, oral single dose 2 mg, cohort geometric mean

Question: Which Cmax ([1]; Cohort 1, single dose 0.5 mg) does the source give for `Cc1ccc(-c2ccc(OC3CN4CCC3CC4)cn2)cc1` (stereo not drawn) [AQW051] here?
Answer: Its Cmax is 0.266 ng/mL.

Question: What about the tmax ([1]; Cohort 1, single dose 0.5 mg) of the same compound?
Answer: Its tmax is 8 h.

Question: What about the Cmax ([1]; Cohort 2, single dose 2.5 mg) of the same compound?
Answer: The Cmax was 1.20 ng/mL.

Question: What about the tmax ([1]; Cohort 2, single dose 2.5 mg) of the same compound?
Answer: The tmax was 8 h.

Question: What about the Cmax ([1]; Cohort 3, single dose 7.5 mg) of the same compound?
Answer: Its Cmax is 4.34 ng/mL.

Question: What about the t1/2 ([1]; Cohort 3, single dose 7.5 mg) of the same compound?
Answer: Its t1/2 is 22.0 h.

Question: And the tmax ([1]; Cohort 3, single dose 7.5 mg)?
Answer: Its tmax is 7.98 h.

Question: And the Cmax ([1]; Cohort 4, single dose 25 mg)?
Answer: Its Cmax is 20.6 ng/mL.

Question: And the t1/2 ([1]; Cohort 4, single dose 25 mg)?
Answer: The t1/2 was 22.7 h.

Question: What about the tmax ([1]; Cohort 4, single dose 25 mg) of the same compound?
Answer: The tmax was 8 h.

Question: What about the Cmax ([1]; Cohort 5, single dose 75 mg) of the same compound?
Answer: Its Cmax is 47.0 ng/mL.

Question: And the t1/2 ([1]; Cohort 5, single dose 75 mg)?
Answer: The t1/2 was 18.8 h.

Question: What about the tmax ([1]; Cohort 5, single dose 75 mg) of the same compound?
Answer: The tmax was 4.04 h.

Question: What about the Cmax ([1]; Cohort 6, single dose 200 mg) of the same compound?
Answer: Its Cmax is 162 ng/mL.

Question: And the t1/2 ([1]; Cohort 6, single dose 200 mg)?
Answer: Its t1/2 is 20.0 h.

Question: What about the tmax ([1]; Cohort 6, single dose 200 mg) of the same compound?
Answer: The tmax was 4.77 h.

Question: And the Cmax/Dose ([2]; Cohort 1, single dose 0.5 mg)?
Answer: The Cmax/Dose was 0.53 ng/mL/mg.

Question: And the Cmax/Dose ([2]; Cohort 2, single dose 2.5 mg)?
Answer: The Cmax/Dose was 0.48 ng/mL/mg.

Question: What about the Cmax/Dose ([2]; Cohort 3, single dose 7.5 mg) of the same compound?
Answer: The Cmax/Dose was 0.58 ng/mL/mg.

Question: What about the Cmax/Dose ([2]; Cohort 4, single dose 25 mg) of the same compound?
Answer: Its Cmax/Dose is 0.82 ng/mL/mg.

Question: What about the Cmax/Dose ([2]; Cohort 5, single dose 75 mg) of the same compound?
Answer: The Cmax/Dose was 0.63 ng/mL/mg.

Question: What about the Cmax/Dose ([2]; Cohort 6, single dose 200 mg) of the same compound?
Answer: Its Cmax/Dose is 0.81 ng/mL/mg.

Question: And the Cmax/Dose ([2]; mean over cohorts)?
Answer: The Cmax/Dose was 0.64 ng/mL/mg.

Question: What about the t1/2 ([2]; mean over cohorts) of the same compound?
Answer: The t1/2 was 20.9 h.

Question: And the tmax ([2]; mean over cohorts)?
Answer: Its tmax is 6.80 h.

Question: And the “K (equation 7 and 8)” value [3]?
Answer: Its value is 0.88 ng/mL/mg.

Question: And the “ka (absorption time constant)” value [3]?
Answer: The value was 0.40 h⁻¹.

Question: What about the “ke (elimination time constant)” value [3] of the same compound?
Answer: Its value is 0.033 h⁻¹.

Question: What about the EC50 [4] of the same compound?
Answer: Its EC50 is 40 nM.

Question: What about the “effect size, improvement in MCI” value ([5]; PD patients, 10 mg once daily, P=0.073) of the same compound?
Answer: Its value is 0.4.

Question: What about the “increase in cognitive function” value ([5]; PD patients, 10 mg) of the same compound?
Answer: The value was “not significantly different from the control group”.

Question: And the “effect size, improvement in MCI” value ([5]; PD patients, 50 mg once daily, P=0.024)?
Answer: Its value is 0.5.

Question: What about the “improvement in cognitive function” value ([5]; PD patients, 50 mg) of the same compound?
Answer: The value was “significantly different from the placebo cohort”.

Question: And the cognitive function ([5]; Trenkwalder et al 2016 study)?
Answer: The cognitive function was “improvements in cognitive function can be realised”.

Question: Which results are given for `c1cnc2c(c1)C[C@@]1(CN3CCC1CC3)O2` [AZD0328, (3R)-spiro[1-azabicyclo[2.2.2]octane-3,2′(3′H)-furo[2,3-b]pyridine]?
Answer: EC50 ([6]; read-out: activation of whole cell current IC50): 2900 nM; Emax ([6]; read-out: intrinsic activity compared with acetylcholine): 101%; K (equation 7 and 8) [7]: 32.4 nm/mg; ka (absorption time constant) [7]: 1.57 h⁻¹; ke (elimination time constant) [7]: 0.11 h⁻¹; selectivity to the α1β1γδ nAChR [8]: ~20 fold; long-term potentiation [9]: significantly improve; operant conditioning [9]: significantly improve; IC50 [10]: 3 nM; doses enhancing spatial working memory [11]: above 0.001 mg/kg; improvement in cognition [12]: did not show a statistically significant improvement in cognition; adverse effects ([13]; clinical studies, single dose 0.68 mg): adverse effects, especially, nausea become apparent; prevalence of adverse events ([13]; clinical studies, single doses from 0.25 mg to 0.50 mg): markedly reduced; Cmax [13, 16]: 0.63 nM; t1/2 [13, 16]: 6.25 h; Cmax [13, 17]: 2.08 nM; t1/2 [13, 17]: 5.94 h; Cmax [13, 18]: 6.37 nM; t1/2 [13, 18]: 6.69 h; Cmax [13, 19]: 15 nM; t1/2 [13, 19]: 5.98 h; Cmax [13, 20]: 31 nM; t1/2 [13, 20]: 6.87 h; Cmax [13, 21]: 43.9 nM; tmax [13, 21]: 2.45 h; half-life ([13]; human, plasma, oral, mean over cohorts): 1.81 h; tmax ([13]; human, plasma, oral, mean over cohorts, read-out: tmax): 6.21 h; tmax ([13]; human, plasma, healthy volunteers, oral single dose 0.025 mg, cohort geometric mean, read-out: tmax): 1.44 h; tmax ([13]; human, plasma, healthy volunteers, oral single dose 0.075 mg, cohort geometric mean, read-out: tmax): 1.59 h; tmax ([13]; human, plasma, healthy volunteers, oral single dose 0.23 mg, cohort geometric mean, read-out: tmax): 1.38 h; tmax ([13]; human, plasma, healthy volunteers, oral single dose 0.68 mg, cohort geometric mean, read-out: tmax): 2.08 h; tmax ([13]; human, plasma, healthy volunteers, oral single dose 1.35 mg, cohort geometric mean, read-out: tmax): 2.95 h; Cmax/Dose ([13]; mean over cohorts): 24.6 nM/mg; Cmax/Dose ([13]; oral single dose 0.025 mg): 25.2 nM/mg; Cmax/Dose ([13]; oral single dose 0.075 mg): 27.7 nM/mg; Cmax/Dose ([13]; oral single dose 0.23 mg): 27.7 nM/mg; Cmax/Dose ([13]; oral single dose 0.68 mg): 22.1 nM/mg; Cmax/Dose ([13]; oral single dose 1.35 mg): 22.9 nM/mg; Cmax/Dose ([13]; oral single dose 2 mg): 21.94 nM/mg; Ki [14]: 5 nM; selectivity to other nicotinic receptors and a panel of other targets [15]: 1000 fold
